Measurements taken from publication PMC6076275, “Novel Arginine-containing Macrocyclic MMP Inhibitors: Synthesis, ^99mTc-labeling, and Evaluation” (Scientific Reports, 2018).
In brackets after ≈: the same amount, converted by molar mass. Like-named read-outs stand apart in the source and are kept apart here.

Tests used:
[1] = background statement, no own test described; cited from earlier work
[2] = Water solubility; assay type: physicochemical; conditions: described as good water solubility
[3] = target: T1, rhMMP-12 (Homo sapiens, UniProt P39900); parameters: method as in PMID 28360209; conditions: value marked with citation; cited from earlier work
T1 construct: purchased R&D Systems (Minneapolis, MN, USA)

[4] = target: Recombinant Human TACE/ADAM17 (Homo sapiens, UniProt P78536); assay: TACE inhibition assay, fluorogenic peptide substrate
[5] = target: T2, rhMMP-13 (Homo sapiens, UniProt P45452); assay: MMP inhibition assay, fluorogenic substrate cleavage kinetics; assay type: biochemical
T2 construct: purchased R&D Systems (Minneapolis, MN, USA)
Procedure: (§1) MMP inhibition assays were carried out based on the kinetic effects of an inhibitor on the MMP-mediated catalytic cleavage of a fluorogenic substrate, namely Mca-Lys-Pro-Leu-Gly-Leu-Dpa-Ala-Arg-NH2, as reported by others previously[9],[23],[28]. In the first set of studies, the inhibitory effect of RYM was evaluated against 5 activated recombinant human (rh)MMPs, including rhMMP-2, rhMMP-7, rhMMP-9, rhMMP-12, and rhMMP-13.
(§2) The recombinant human MMPs (rhMMPs) including rhMMP-2, rhMMP-7, rhMMP-9, rhMMP-12, and rhMMP-13 were purchased from R&D Systems (Minneapolis, MN, USA). A buffer consisting of 50 mM Tris, 10 mM CaCl2, 150 mM NaCl, 0.05% Brij-35 (w/v) (pH 7.5, […]) was used for all the MMP assays. A mixture of the rhMMPs (500 ng, 9 µL in assay buffer) and p-aminophenylmercuric acetate (APMA, 1 µL, 10.0 mM in DMSO) was incubated at 37 °C (1 h/rhMMP-2, 2 h/rhMMP-7, 24 h/rhMMP-9, 4 h/rhMMP-12, and 2 h/rhMMP-13) according to the procedures described by R&D Systems. The activated MMPs were diluted to 500 µL in the assay buffer for inhibition assays. The assays were carried out in 96-well black non-binding surface microplates (Fisher Scientific). Seventy microliter (for inhibitor wells) and 80 µL (control wells) of the assay buffer were first added into each well as designed, followed by adding 10 µL (10 ng) of the activated MMP solutions into each well. The inhibitor solutions at 4 different concentrations (10 µL each well) were added into the corresponding inhibitor wells in the microplate which was then swirled at room temperature for 30 min. Ten microliter of the fluorogenic MMP substrate solutions (R&D SYSTEMS®) at 4 different concentrations (20.0, 30.0, 40.0, and 50.0 µM) in assay buffer were added into each well to make a total volume of 100 µL. […] Finally, the competitive inhibition constants (Ki value) were calculated from the mean velocity values, and related substrate (S) and inhibitor (I) concentrations using GraphPad Prism 6 by the following equation for competitive inhibition, where Vmax is the maximal velocity, the KM Michaelis-Menten constant: v=Vmax[S]/KM(1+[I]/Ki)+[S]

[6] = target: T3, rhMMP-2 (Homo sapiens, UniProt P08253); assay: as above; assay type: biochemical; conditions: mean ± SD of three experiments
T3 construct: purchased R&D Systems (Minneapolis, MN, USA)
T3 sequence (P08253 110-660): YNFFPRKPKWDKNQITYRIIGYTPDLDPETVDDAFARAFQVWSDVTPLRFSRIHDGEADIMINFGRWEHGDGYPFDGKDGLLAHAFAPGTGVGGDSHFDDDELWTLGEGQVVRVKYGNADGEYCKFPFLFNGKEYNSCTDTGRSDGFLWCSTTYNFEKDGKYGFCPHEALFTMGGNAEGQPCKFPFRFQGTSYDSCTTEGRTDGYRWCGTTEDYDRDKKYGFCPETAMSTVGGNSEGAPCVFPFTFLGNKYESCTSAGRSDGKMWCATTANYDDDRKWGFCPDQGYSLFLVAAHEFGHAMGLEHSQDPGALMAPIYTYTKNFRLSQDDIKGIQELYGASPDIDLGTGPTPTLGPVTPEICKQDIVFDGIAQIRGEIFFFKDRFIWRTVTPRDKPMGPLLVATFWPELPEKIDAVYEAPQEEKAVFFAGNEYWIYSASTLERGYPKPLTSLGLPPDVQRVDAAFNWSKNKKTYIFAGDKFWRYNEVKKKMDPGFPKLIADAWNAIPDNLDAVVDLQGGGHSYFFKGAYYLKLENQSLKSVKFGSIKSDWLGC
Procedure: as §1, §2

[7] = target: T4, rhMMP-9 (Homo sapiens, UniProt P14780); assay: as above; assay type: biochemical; conditions: mean ± SD of three experiments
T4 construct: purchased R&D Systems (Minneapolis, MN, USA)
Procedure: as §1, §2

[8] = target: T5, rhMMP-7 (Homo sapiens, UniProt P09237); assay: as above; assay type: biochemical; conditions: mean ± SD of three experiments
T5 construct: purchased R&D Systems (Minneapolis, MN, USA)
T5 sequence (P09237 95-267): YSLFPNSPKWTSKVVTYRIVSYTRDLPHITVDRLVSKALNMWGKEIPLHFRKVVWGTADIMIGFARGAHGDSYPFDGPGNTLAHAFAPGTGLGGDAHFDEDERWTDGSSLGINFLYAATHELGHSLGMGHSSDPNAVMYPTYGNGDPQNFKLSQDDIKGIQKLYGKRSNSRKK
Procedure: as §1, with “rhMMP-13. […] RYM also had potent MMP inhibition with Ki values at nM concentrations.” for “rhMMP-13.”
The recombinant human MMPs (rhMMPs) including rhMMP-2, rhMMP-7, rhMMP-9, rhMMP-12, and rhMMP-13 were purchased from R&D Systems (Minneapolis, MN, USA). […] The microplate fluorescence was measured at 320 nm (excitation) and 405 nm (emission) wavelengths for 30 min (1.44 min intervals, sensitivity 100, shaking intensity 4 and duration 30 s) by a fluorescent plate reader (BIO-TEK/Synergy HT) to generate the fluorescence kinetic curves and related mean velocity values (v), i.e. relative fluorescence units per min (RFU/min). Finally, the competitive inhibition constants (Ki value) were calculated from the mean velocity values, and related substrate (S) and inhibitor (I) concentrations using GraphPad Prism 6 by the following equation for competitive inhibition, where Vmax is the maximal velocity, the KM Michaelis-Menten constant: v=Vmax[S]/KM(1+[I]/Ki)+[S]

[9] = target: T1, rhMMP-12; assay: as above; assay type: biochemical; conditions: mean ± SD of three experiments
Procedure: as §1, with “rhMMP-13. […] RYM also had potent MMP inhibition with Ki values at nM concentrations.” for “rhMMP-13.”
Next, we evaluated the effect of ^99mTc-labeling on RYM MMP inhibition, using rhMMP-12 as a representative enzyme. A solution of ^99mTc-RYM1 prepared from 2 µg of RYM1 was decayed at −80 °C for two days, lyophilized, and re-dissolved in saline for MMP inhibition assays.
The recombinant human MMPs (rhMMPs) including rhMMP-2, rhMMP-7, rhMMP-9, rhMMP-12, and rhMMP-13 were purchased from R&D Systems (Minneapolis, MN, USA). […] The microplate fluorescence was measured at 320 nm (excitation) and 405 nm (emission) wavelengths for 30 min (1.44 min intervals, sensitivity 100, shaking intensity 4 and duration 30 s) by a fluorescent plate reader (BIO-TEK/Synergy HT) to generate the fluorescence kinetic curves and related mean velocity values (v), i.e. relative fluorescence units per min (RFU/min). […]

T1 sequence (P39900 106-470): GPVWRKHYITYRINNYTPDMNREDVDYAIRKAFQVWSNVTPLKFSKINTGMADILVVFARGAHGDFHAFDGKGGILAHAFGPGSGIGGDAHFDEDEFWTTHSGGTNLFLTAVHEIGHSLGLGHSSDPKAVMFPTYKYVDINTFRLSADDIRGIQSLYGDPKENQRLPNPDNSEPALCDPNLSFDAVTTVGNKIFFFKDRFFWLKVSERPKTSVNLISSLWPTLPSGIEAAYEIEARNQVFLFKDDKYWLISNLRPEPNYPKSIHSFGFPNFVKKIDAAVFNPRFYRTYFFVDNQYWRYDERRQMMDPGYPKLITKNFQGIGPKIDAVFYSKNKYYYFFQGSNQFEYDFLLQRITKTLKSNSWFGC
Recombinant Human TACE/ADAM17, sequence (P78536 215-824): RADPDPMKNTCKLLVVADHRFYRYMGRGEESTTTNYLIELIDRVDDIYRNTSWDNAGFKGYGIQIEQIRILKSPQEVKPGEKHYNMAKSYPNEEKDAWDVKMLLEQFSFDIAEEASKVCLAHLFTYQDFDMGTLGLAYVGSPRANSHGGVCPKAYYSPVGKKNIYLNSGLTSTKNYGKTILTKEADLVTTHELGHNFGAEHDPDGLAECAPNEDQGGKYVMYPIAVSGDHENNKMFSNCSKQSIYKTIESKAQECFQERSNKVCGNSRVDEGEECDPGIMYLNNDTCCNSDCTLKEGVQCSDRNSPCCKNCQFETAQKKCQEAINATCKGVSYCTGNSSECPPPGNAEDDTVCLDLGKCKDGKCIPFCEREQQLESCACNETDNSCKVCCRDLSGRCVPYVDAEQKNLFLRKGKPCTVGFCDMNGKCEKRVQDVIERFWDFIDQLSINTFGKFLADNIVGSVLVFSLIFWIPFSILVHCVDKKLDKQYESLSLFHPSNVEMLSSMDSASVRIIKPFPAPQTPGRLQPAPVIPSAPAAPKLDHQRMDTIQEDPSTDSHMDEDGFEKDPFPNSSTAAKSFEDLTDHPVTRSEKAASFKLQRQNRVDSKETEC
T4 sequence (P14780 107-707 limits assumed): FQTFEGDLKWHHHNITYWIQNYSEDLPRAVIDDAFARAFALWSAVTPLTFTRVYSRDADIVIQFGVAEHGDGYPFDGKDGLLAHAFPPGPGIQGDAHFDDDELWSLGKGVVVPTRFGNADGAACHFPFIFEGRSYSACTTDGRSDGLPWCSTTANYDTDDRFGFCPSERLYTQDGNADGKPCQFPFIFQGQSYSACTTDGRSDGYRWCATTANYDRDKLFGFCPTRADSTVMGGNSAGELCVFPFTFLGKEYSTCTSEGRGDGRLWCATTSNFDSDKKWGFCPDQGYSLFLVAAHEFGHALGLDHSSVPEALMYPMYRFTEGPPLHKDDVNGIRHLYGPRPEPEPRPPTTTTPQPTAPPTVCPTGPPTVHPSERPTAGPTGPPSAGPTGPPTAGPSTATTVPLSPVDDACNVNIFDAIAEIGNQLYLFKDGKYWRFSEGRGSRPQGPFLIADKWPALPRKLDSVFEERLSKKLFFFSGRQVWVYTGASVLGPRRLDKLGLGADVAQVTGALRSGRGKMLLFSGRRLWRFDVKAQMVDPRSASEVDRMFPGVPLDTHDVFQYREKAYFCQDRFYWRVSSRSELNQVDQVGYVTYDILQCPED

SMILES | water solubility (in words) [1] | solubility [2] | Ki [4] | Ki [8] | Ki [9] | further results
CC(C)CC1C(=O)NC(C(=O)NCc2ccc(CNC(=O)c3ccc(NN)nc3)cc2)Cc2ccc(cc2)OCCCC1C(=O)NO (centres unmarked) [RP805 precursor] | poor water solubility |  |  |  |  | 
CNC(=O)[C@H](Cc1ccccc1)NC(=O)[C@H](CC(C)C)[C@H](CSc1cccs1)C(=O)NO [batimastat (BB-94), batimastat] | very poor water solubility |  |  |  |  | 
CC(C)CC1C(=O)NC(C(=O)NC(CCCNC(=N)N)C(=O)NCCNC(=O)c2ccc(NN)nc2)Cc2ccc(cc2)OCCCC1C(=O)NO [RYM1, (6 S,7 R,10 S)-N^10-((S)-5-guanidino-1-((2-(6-hydrazinylnicotinamido)ethyl)amino)-1-oxopentan-2-yl)-N^6-hydroxy-7-isobutyl-8-oxo-2-oxa-9-aza-1(1,4)-benzenacyclo undecaphane-6,10-dicarboxamide] |  | 10000 µg/mL (≈ 13.8 mM) | 8.6 ± 2.2 nM |  |  | Ki [3]: 2.2 ± 0.5 nM
CNC(=O)C(CCCNC(=N)N)NC(=O)C1Cc2ccc(cc2)OCCCC(C(=O)NO)C(CC(C)C)C(=O)N1 (centres unmarked) [RYM] |  | 10000 µg/mL (≈ 17.8 mM) | 4.9 ± 1.3 nM | 17.2 ± 0.1 nM | 1 ± 0.5 nM | Ki ([5]; mean ± SD of three experiments, read-out: Ki rhMMP-13): 15.3 ± 5.4 nM; Ki [6]: 5.8 ± 0.4 nM; Ki [7]: 20.4 ± 2 nM
CNC(=O)[C@H](Cc1c[nH]c2ccccc12)NC(=O)[C@@H](CC(=O)NO)CC(C)C [GM-6001, reference compound] | very poor water solubility |  | 113 ± 4.1 nM | 0.4 nM | 0.6 nM | Ki [5]: 0.3 nM
